# Measured values as given in paper PMC9141920, “Identification and Characterization of Dipeptidyl Peptidase-IV Inhibitory Peptides from Oat Proteins” (Foods, 2022).
# Read-outs that look alike come from different tables or passages of the source. Where a SMILES comes first, the peptide text is derived from it.
# Experiments:
# [1] = molecular target: T1, human DPP-IV (Homo sapiens, UniProt P27487); assay: DPP-IV inhibitory activity assay with Gly-Pro-AMC as the substrate; assay type: biochemical; conditions: for IC50: peptides, Gly-Pro-AMC substrate
# T1 construct: purchased Sigma-Aldrich
# Experimental: The DPP-IV inhibitory activity assay of the sample was performed using Gly-Pro-AMC as the substrate, as previously described. Briefly, 50 µL Gly-Pro-AMC (0.2 mM) was added to a 40 µL sample (dissolved in 100 mM HEPES buffer) and incubated for 10 min at 37 °C. The reaction was initiated by adding 10 µL DPP-IV enzyme solution (10 U/L). After being incubated for 60 min at 37 °C, the reaction was terminated by adding 100 µL sodium acetate buffer (1 M, pH 4.0). The fluorescence intensity of the mixture was measured with an excitation wavelength of 350 nm and an emission wavelength of 440 nm. The control group used the HEPES buffer instead of the sample. The blank group used the HEPES buffer instead of the sample and DPP-IV enzyme solution. The DPP-IV inhibitory activity of the sample was calculated as follows:(2) DPP-IV inhibitory activity (%)=(Ac− Ab) − (As−Ab)/(Ac−Ab)×100% where As, Ac, and Ab are the intensity of the fluorescence of the sample, control, and blank groups, respectively. The half-maximal inhibitory concentration (IC50) of the sample was calculated according to the DPP-IV inhibition activity against the concentrations of the sample. In addition, the type of inhibition of the sample was obtained from the Lineweaver–Burk equation and double reciprocal plots.
# [2] = tested on: DPP-IV; conditions: cited from earlier work; for Inhibition mode on DPP-IV: similar results reported
# [3] = tested on: DPP-IV; set-up: method as in PMID 6427168; conditions: Gly-Pro-pNA as the substrate; read-out: DPP-IV inhibition IC50; cited from earlier work
# [4] = camel milk protein-derived peptides
# [5] = Chlorella Vulgaris protein-derived peptides
# [6] = wheat-derived peptides, read-out: DPP-IV inhibition IC50
# [7] = Ruditapes Philippinarum protein-derived peptides
# T1 sequence (P27487 whole entry): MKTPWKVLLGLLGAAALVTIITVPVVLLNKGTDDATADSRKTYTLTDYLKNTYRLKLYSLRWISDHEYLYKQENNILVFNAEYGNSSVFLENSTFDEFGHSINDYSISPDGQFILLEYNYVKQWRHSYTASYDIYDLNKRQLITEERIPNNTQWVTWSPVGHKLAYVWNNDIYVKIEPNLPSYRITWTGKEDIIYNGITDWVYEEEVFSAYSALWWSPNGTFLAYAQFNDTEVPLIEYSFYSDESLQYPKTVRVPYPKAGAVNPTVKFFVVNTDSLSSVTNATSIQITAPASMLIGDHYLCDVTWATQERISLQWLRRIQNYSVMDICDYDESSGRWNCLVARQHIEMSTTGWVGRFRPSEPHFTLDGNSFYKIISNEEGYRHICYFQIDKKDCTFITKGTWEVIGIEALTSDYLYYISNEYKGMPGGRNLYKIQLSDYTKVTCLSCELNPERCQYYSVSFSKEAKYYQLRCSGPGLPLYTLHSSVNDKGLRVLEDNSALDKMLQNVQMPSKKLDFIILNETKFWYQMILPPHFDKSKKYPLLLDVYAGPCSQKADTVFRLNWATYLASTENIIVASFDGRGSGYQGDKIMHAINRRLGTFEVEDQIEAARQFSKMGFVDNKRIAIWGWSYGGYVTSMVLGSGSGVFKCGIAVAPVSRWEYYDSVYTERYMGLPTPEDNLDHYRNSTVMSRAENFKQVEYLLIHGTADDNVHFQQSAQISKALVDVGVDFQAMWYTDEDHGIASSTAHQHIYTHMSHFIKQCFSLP
compound,measurement,setting,value
O=C(N[C@@H](CS)C(=O)N1CCC[C@H]1C(=O)O)[C@H](Cc1c[nH]cn1)NC(=O)[C@@H]1CCCN1C(=O)[C@@H]1CCCN1 [PPHCP] (H-PPHCP-OH; N-terminus and C-terminus assumed),inhibition at 25 µM,[1],4.42 ± 3.95%
same,inhibition at 50 µM,[1],29.9 ± 1.84%
same,inhibition at 100 µM,[1],58.9 ± 1.1%
same,inhibition at 200 µM,[1],81.35 ± 0.48%
same,inhibition at 400 µM,[1],89.29 ± 0.45%
SPVVPF,Inhibition mode on DPP-IV,[2]; [4],mixed-type inhibitors
CC(C)C[C@H](N)C(=O)N1CCC[C@H]1C(=O)N[C@@H](CCC(N)=O)C(=O)N[C@@H](Cc1ccc(O)cc1)C(=O)N[C@@H](CCC(N)=O)C(=O)N[C@@H](C)C(=O)O [LPQYQA] (H-LPQYQA-OH),inhibition at 200 µM,[1],5.59 ± 3.1%
same,inhibition at 400 µM,[1],29.8 ± 2.5%
VPW,Inhibition mode on DPP-IV,[2]; [5],mixed-type inhibitors
CC(C)[C@H](NC(=O)[C@H](C)NC(=O)[C@H](C)N)C(=O)N1CCC[C@H]1C(=O)N[C@@H](Cc1ccccc1)C(=O)O [AAVPF] (H-AAVPF-OH),inhibition at 25 µM,[1],5.42 ± 3.61%
same,inhibition at 50 µM,[1],16.7 ± 3.38%
same,inhibition at 100 µM,[1],28.9 ± 2.62%
same,inhibition at 200 µM,[1],39.9 ± 2.79%
same,inhibition at 400 µM,[1],59.8 ± 2.84%
same,IC50,[1],282 ± 27.2 µM
CC(C)[C@H](N)C(=O)N[C@@H](C)C(=O)N[C@@H](CCC(=O)O)C(=O)N[C@H](C(=O)N1CCC[C@H]1C(=O)N[C@@H](Cc1ccccc1)C(=O)O)C(C)C [VAEVPF] (H-VAEVPF-OH),inhibition at 25 µM,[1],33 ± 12.3%
same,inhibition at 50 µM,[1],43.4 ± 2.27%
same,inhibition at 100 µM,[1],58.2 ± 3.86%
same,inhibition at 200 µM,[1],74.2 ± 2.32%
same,inhibition at 400 µM,[1],86.2 ± 0.96%
same,IC50,[1],65.3 ± 13.1 µM
CC(C)[C@H](N)C(=O)N1CCC[C@H]1C(=O)N[C@@H](CCC(N)=O)C(=O)N[C@@H](Cc1c[nH]cn1)C(=O)N[C@@H](Cc1ccc(O)cc1)C(=O)O [VPQHY] (H-VPQHY-OH),inhibition at 25 µM,[1],40.5 ± 4.59%
same,inhibition at 50 µM,[1],69.3 ± 4.66%
same,inhibition at 100 µM,[1],78.8 ± 2.17%
same,inhibition at 200 µM,[1],87.25 ± 0.25%
same,inhibition at 400 µM,[1],94.3 ± 0.28%
same,IC50,[1],30.8 ± 1.93 µM
CC(C)C[C@H](N)C(=O)N1CCC[C@H]1C(=O)N[C@@H](CCC(N)=O)C(=O)N[C@@H](Cc1c[nH]cn1)C(=O)N[C@@H](Cc1ccc(O)cc1)C(=O)O [LPQHY] (H-LPQHY-OH),inhibition at 25 µM,[1],21.3 ± 4.86%
same,inhibition at 50 µM,[1],37.4 ± 4.24%
same,inhibition at 100 µM,[1],62.6 ± 1.21%
same,inhibition at 200 µM,[1],80.4 ± 4.84%
same,inhibition at 400 µM,[1],89.87 ± 0.41%
CC[C@H](C)[C@H](N)C(=O)N1CCC[C@H]1C(=O)N[C@@H](CCC(N)=O)C(=O)N[C@@H](Cc1c[nH]cn1)C(=O)N[C@@H](Cc1ccc(O)cc1)C(=O)O [IPQHY] (H-IPQHY-OH),inhibition at 25 µM,[1],49.4 ± 1.19%
same,inhibition at 50 µM,[1],66.9 ± 1.46%
same,inhibition at 100 µM,[1],82.67 ± 0.74%
same,inhibition at 200 µM,[1],91 ± 1.2%
same,inhibition at 400 µM,[1],95.84 ± 0.52%
same,IC50,[1],25.7 ± 1.06 µM
VAVPV,IC50,[2]; [6],~500 µM
CSCC[C@H](N)C(=O)N[C@@H](C)C(=O)NCC(=O)N[C@@H](CCC(N)=O)C(=O)N[C@H](C(=O)N[C@@H](Cc1ccccc1)C(=O)O)C(C)C [MAGQVF] (H-MAGQVF-OH),inhibition at 25 µM,[1],10.4 ± 4.35%
same,inhibition at 50 µM,[1],13 ± 2.11%
same,inhibition at 100 µM,[1],26.7 ± 3.49%
same,inhibition at 200 µM,[1],49.4 ± 1.9%
same,inhibition at 400 µM,[1],67.5 ± 2.97%
same,IC50,[1],223 ± 6.16 µM
FAGDDAPR [Ruditapes Philippinarum protein-derived peptide],Inhibition mode on DPP-IV,[2]; [7],mixed-type inhibitors
VPL,IC50,[3],16.8 µM
MPF,IC50,[2]; [6],~500 µM
FAGDDAPRA [Ruditapes Philippinarum protein-derived peptide],Inhibition mode on DPP-IV,[2]; [7],mixed-type inhibitors
FLMESH,Inhibition mode on DPP-IV,[2]; [7],mixed-type inhibitors
LQAFEPLR,IC50,"[2]; peptide from tryptic hydrolysate of oat globulin, read-out: DPP-IV inhibitory activity IC50",104 µM
IPR,Inhibition mode on DPP-IV,[2]; [5],mixed-type inhibitors
ILDKVGINY [camel milk protein-derived peptide],Inhibition mode on DPP-IV,[2]; [4],mixed-type inhibitors
CC(C)[C@H](N)C(=O)N[C@@H](C)C(=O)N[C@H](C(=O)N[C@H](C(=O)N1CCC[C@H]1C(=O)N[C@@H](Cc1ccccc1)C(=O)O)C(C)C)C(C)C [VAVVPF] (H-VAVVPF-OH),inhibition at 25 µM,[1],42.9 ± 2.31%
same,inhibition at 50 µM,[1],61.5 ± 5.19%
same,inhibition at 100 µM,[1],66 ± 4.07%
same,inhibition at 200 µM,[1],78.9 ± 1.23%
same,inhibition at 400 µM,[1],87.99 ± 0.39%
same,IC50,[1],33.9 ± 4.83 µM
CC(C)C[C@H](NC(=O)[C@@H]1CCCN1C(=O)[C@@H](N)C(C)C)C(=O)NCC(=O)NCC(=O)N[C@@H](Cc1ccccc1)C(=O)O [VPLGGF] (H-VPLGGF-OH),inhibition at 25 µM,[1],34 ± 0.76%
same,inhibition at 50 µM,[1],55.9 ± 1.86%
same,inhibition at 100 µM,[1],74.4 ± 0.88%
same,inhibition at 200 µM,[1],86.7 ± 1.1%
same,inhibition at 400 µM,[1],92.67 ± 0.36%
same,IC50,[1],40.2 ± 0.95 µM
